# Tested on: mice
# Assay: Neuropharmacological assay (SmartCube), behavioral signature of compound-treated mice
# Format: in vivo
# Settings: i.p. 15 min before behavioral test, most efficacious dose(s) of 3 doses
# Summary of the method: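 Mice received compound i.p. in NMP/PEG/propylene glycol vehicle at 3 doses, 15 min before testing. Video-captured behavior was algorithmically compared with a reference-drug signature database.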
Compound,AD: ADHD (probability that behavioral signature matches class),AG: analgesic (probability that behavioral signature matches class),AX: anxiolytic (probability that behavioral signature matches class),CE: cognitive enhancer (probability that behavioral signature matches class),DP: anti-depressant (probability that behavioral signature matches class),HA: hallucinogen (probability that behavioral signature matches class),MS: mood stabilizer (probability that behavioral signature matches class),PS: anti-psychotic (probability that behavioral signature matches class),SD: sedative hypnotic (probability that behavioral signature matches class),UN: uncharacterized CNS activity (probability that behavioral signature matches class),XG: anxiogenic (probability that behavioral signature matches class)
"Fc1cccc2c1CCO[C@@H]2[C@@H]1CCCN1 [Compound I-14, (S)-2-((S)-5-fluoroisochroman-1-yl)pyrrolidine]",+ (LOQ ≤ + <5%),++ (5% ≤ ++ <25%),++ (5% ≤ ++ <25%),++ (5% ≤ ++ <25%),+++ (25% ≤ +++ <50%),+ (LOQ ≤ + <5%),++ (5% ≤ ++ <25%),+++ (25% ≤ +++ <50%),+ (LOQ ≤ + <5%),+ (LOQ ≤ + <5%),+ (LOQ ≤ + <5%)
"Fc1ccc2c(c1)CO[C@H]2[C@H]1CCCN1 [Compound I-121, (R)-2-((R)-5-fluoro-1,3-dihydroisobenzofuran-1-yl)pyrrolidine]",+ (LOQ ≤ + <5%),+++ (25% ≤ +++ <50%),+++ (25% ≤ +++ <50%),++ (5% ≤ ++ <25%),++ (5% ≤ ++ <25%),+ (LOQ ≤ + <5%),+ (LOQ ≤ + <5%),++ (5% ≤ ++ <25%),++ (5% ≤ ++ <25%),++ (5% ≤ ++ <25%),+ (LOQ ≤ + <5%)
"c1ccc2c(c1)CCO[C@@H]2C1CNC1 [Compound I-114, (R)-3-(isochroman-1-yl)azetidine]",+ (LOQ ≤ + <5%),++ (5% ≤ ++ <25%),++ (5% ≤ ++ <25%),++ (5% ≤ ++ <25%),+++ (25% ≤ +++ <50%),+ (LOQ ≤ + <5%),+ (LOQ ≤ + <5%),++ (5% ≤ ++ <25%),++ (5% ≤ ++ <25%),+ (LOQ ≤ + <5%),+ (LOQ ≤ + <5%)
"Fc1cccc2c1CCO[C@H]2[C@H]1CCN1 [Compound I-95, (R)-2-((R)-5-fluoroisochroman-1-yl)azetidine]",+ (LOQ ≤ + <5%),+++ (25% ≤ +++ <50%),++ (5% ≤ ++ <25%),++ (5% ≤ ++ <25%),++ (5% ≤ ++ <25%),+ (LOQ ≤ + <5%),+ (LOQ ≤ + <5%),++ (5% ≤ ++ <25%),+ (LOQ ≤ + <5%),+ (LOQ ≤ + <5%),+ (LOQ ≤ + <5%)

# — patent US10336732B2, “1-heterocyclyl isochromanyl compounds and analogs for treating CNS disorders” (Sunovion Pharmaceuticals Inc., priority 2015, dated 2019)
